Reference: patent publication US9982005B2, “Macrolides and methods of their preparation and use” (President and Fellows of Harvard College, priority 2013, dated 2018)
≈ marks a conversion by molar mass, not a printed value. Read-outs that look alike come from different tables or passages of the source.

Key:
Assay type in all cases: cell-based
E. faecalis strains = experiment: MIC against E. faecalis strains (Table M8); conditions: for MIC: Enterococcus faecalis, E. faecalis 29212
A. baumannii strains = experiment: MIC against A. baumannii strains (Table M8); conditions: for MIC: Acinetobacter baumannii, BAA747, A. baumannii BAA747-1
E. coli strains = experiment: MIC against E. coli strains (Table M7); conditions: for MIC: Escherichia coli, ATCC25922, E. coli ATCC 25922
Text: (§1) We have collected MIC data for a total of 50 novel macrolides that this platform has produced against over 21 unique strains of B. subtilis, E. coli, S. aureus, S. pneumoniae, and H. influenzae, including several multidrug-resistant strains, with a special focus on macrolide resistant mechanisms (vide supra). Azithromycin was included as a control macrolide. CLSI standard procedures for broth dilution MIC determination were used. […] These genotypes can be constitutive or inducible. The finding that C4-epi (unnatural) isomers of the “azaketolide” macrolide class have enhanced activities relative to C4 natural isomers is very exciting.

H. influenzae strains = experiment: MIC against H. influenzae strains (Table M8); conditions: for MIC: Haemophilus influenzae
Text: as §1

K. pneumoniae strains = experiment: MIC against K. pneumoniae strains (Table M8); conditions: for MIC: Klebsiella pneumoniae, K. pneumoniae 10031
S. pneumoniae strains = experiment: MIC against S. pneumoniae strains (Tables M7, M8); conditions: for MIC: Streptococcus pneumoniae
Text: CLSI standard procedures for broth dilution MIC determination were used. […] These genotypes can be constitutive or inducible.

S. aureus strains = experiment: MIC against S. aureus strains (Table M7); conditions: for MIC: Staphylococcus aureus
Text: as §1

[1] = H. influenzae 49247, read-out: MIC H. influenzae (49247)
[2] = H. influenzae 49766, read-out: MIC H. influenzae (49766)
[3] = S. pneumoniae 160, read-out: MIC S. pneumonae (160)
[4] = S. pneumoniae 1509, read-out: MIC S. pneumoniae (1509)
[5] = S. pneumoniae 1533, read-out: MIC S. pneumoniae (1533)
[6] = S. pneumoniae 1537, read-out: MIC S. pneumoniae (1537)
[7] = S. pneumoniae 49619, read-out: MIC S. pneumoniae (49619)
[8] = ATCC29213, S. aureus ATCC 29213, read-out: MIC S. aureus (ATCC 29213)
[9] = S. aureus 183, read-out: MIC S. aureus (183)
[10] = S. aureus 506, read-out: MIC S. aureus (506)
[11] = S. aureus 1708, read-out: MIC S. aureus (1708)
[12] = USA300, S. aureus USA300, read-out: MIC S. aureus (USA300)

| SMILES | MIC E. faecalis (29212) (E. faecalis strains) [µg/mL] | MIC A. baumannii (BAA747-1) (A. baumannii strains) [µg/mL] | MIC E. coli (ATCC 25922) (E. coli strains) [µg/mL] | MIC H. influenzae (49247) (H. influenzae strains; H. influenzae 49247) [µg/mL] | MIC (E. faecalis strains) [µg/mL] | MIC (A. baumannii strains) [µg/mL] | MIC (E. coli strains) [µg/mL] | MIC (H. influenzae strains; [1]) [µg/mL] | MIC (H. influenzae strains; [2]) [µg/mL] | MIC (K. pneumoniae strains) [µg/mL] | MIC (S. pneumoniae strains; [3]) [µg/mL] | MIC (S. pneumoniae strains; [4]) [µg/mL] | MIC (S. pneumoniae strains; [5]) [µg/mL] | MIC (S. pneumoniae strains; [6]) [µg/mL] | MIC (S. pneumoniae strains; [7]) [µg/mL] | MIC (S. aureus strains; [8]) [µg/mL] | MIC (S. aureus strains; [9]) [µg/mL] | MIC (S. aureus strains; [10]) [µg/mL] | MIC (S. aureus strains; [11]) [µg/mL] | MIC (S. aureus strains; [12]) [µg/mL] | further results |
| --- | --- | --- | --- | --- | --- | --- | --- | --- | --- | --- | --- | --- | --- | --- | --- | --- | --- | --- | --- | --- | --- |
| CCC1OC(=O)C(Cc2cn[nH]c2)C(=O)C(C)C(OC2OC(C)CC(N(C)C)C2O)C(C)(OCC=Cc2cnc3ccccc3c2)CC(C)CNC(C)C2NC(=O)OC12C (mixture of isomers) [FSM-21264] | >32 | >32 | >32 | 8 | – | – | – | – | – | – | – | – | – | – | – | – | – | – | – | – | MIC H. influenzae (49766) (H. influenzae strains; H. influenzae 49766): >32 µg/mL; MIC K. pneumoniae (10031) (K. pneumoniae strains): >32 µg/mL; MIC S. pneumonae (160) (S. pneumoniae strains; S. pneumoniae 160): 4 µg/mL; MIC S. pneumoniae (1509) (S. pneumoniae strains; S. pneumoniae 1509): >32 µg/mL; MIC S. pneumoniae (1533) (S. pneumoniae strains; S. pneumoniae 1533): >32 µg/mL; MIC S. pneumoniae (1537) (S. pneumoniae strains; S. pneumoniae 1537): >32 µg/mL; MIC S. pneumoniae (49619) (S. pneumoniae strains; S. pneumoniae 49619): 2 µg/mL; MIC S. aureus (183) (S. aureus strains; S. aureus 183): >32 µg/mL; MIC S. aureus (506) (S. aureus strains; S. aureus 506): >32 µg/mL; MIC S. aureus (1708) (S. aureus strains; S. aureus 1708): >32 µg/mL; MIC S. aureus (ATCC 29213) (S. aureus strains): >32 µg/mL; MIC S. aureus (USA300) (S. aureus strains): >32 µg/mL |
| CN(C)c1ccc(O)c2c1C[C@H]1C[C@H]3[C@H](N(C)C)C(O)=C(C(N)=O)C(=O)[C@@]3(O)C(O)=C1C2=O [Minocycline, minocycline, reference compound] | – | – | – | – | 8 (≈ 17.5 µM) | 0.5 (≈ 1.09 µM) | 1 (≈ 2.19 µM) | 4 (≈ 8.74 µM) | 8 (≈ 17.5 µM) | 0.5 (≈ 1.09 µM) | 8 (≈ 17.5 µM) | 16 (≈ 35 µM) | 8 (≈ 17.5 µM) | 8 (≈ 17.5 µM) | 0.25 (≈ 0.546 µM) | 0.25 (≈ 0.546 µM) | 16 (≈ 35 µM) | 2 (≈ 4.37 µM) | 0.5 (≈ 1.09 µM) | 0.25 (≈ 0.546 µM) | – |
| CC[C@H]1OC(=O)[C@H](C)C(=O)[C@H](C)[C@@H](O[C@@H]2OC(C)CC(N(C)C)C2O)[C@](C)(OC)CC(C)N[C@H](C)[C@H]2N(CCCCn3cc(-c4cccc(N)c4)nn3)C(=O)O[C@]12C (stereo partly drawn) [FSM-30690] | >32 | >32 | >32 | >32 | – | – | – | – | – | – | – | – | – | – | – | – | – | – | – | – | MIC H. influenzae (49766) (H. influenzae strains; H. influenzae 49766): >32 µg/mL; MIC K. pneumoniae (10031) (K. pneumoniae strains): >32 µg/mL; MIC S. pneumonae (160) (S. pneumoniae strains; S. pneumoniae 160): >32 µg/mL; MIC S. pneumoniae (1509) (S. pneumoniae strains; S. pneumoniae 1509): >32 µg/mL; MIC S. pneumoniae (1533) (S. pneumoniae strains; S. pneumoniae 1533): >32 µg/mL; MIC S. pneumoniae (1537) (S. pneumoniae strains; S. pneumoniae 1537): >32 µg/mL; MIC S. pneumoniae (49619) (S. pneumoniae strains; S. pneumoniae 49619): >32 µg/mL; MIC S. aureus (183) (S. aureus strains; S. aureus 183): >32 µg/mL; MIC S. aureus (506) (S. aureus strains; S. aureus 506): >32 µg/mL; MIC S. aureus (1708) (S. aureus strains; S. aureus 1708): >32 µg/mL; MIC S. aureus (ATCC 29213) (S. aureus strains): >32 µg/mL; MIC S. aureus (USA300) (S. aureus strains): >32 µg/mL |
| CC[C@H]1OC(=O)C(C)C(=O)[C@H](C)[C@@H](O[C@@H]2OC(C)CC(N(C)C)C2O)[C@](C)(OC)C[C@@H](C)C(=O)N[C@H](C)[C@H]2N(CCCCn3cc(-c4cccc(N)c4)nn3)C(=O)O[C@]12C (stereo partly drawn) [FSM-21344] | – | – | – | – | 16 (≈ 19 µM) | > 32 | > 32 | 8 (≈ 9.5 µM) | 32 (≈ 38 µM) | 16 (≈ 19 µM) | 8 (≈ 9.5 µM) | 4 (≈ 4.75 µM) | > 32 | > 32 | 0.5 (≈ 0.594 µM) | > 32 | > 32 | > 32 | > 32 | > 32 | – |
| CC[C@H]1OC(=O)[C@H](C)C(=O)[C@H](C)[C@@H](O[C@@H]2OC(C)CC(N(C)C)C2O)[C@](CCO)(OC)C[C@@H](C)CN[C@H](C)[C@H]2N(CCCCn3cc(-c4cccc(N)c4)nn3)C(=O)O[C@]12C (stereo partly drawn) [FSM-21422] | – | – | – | – | 16 (≈ 18.6 µM) | > 32 | 32 (≈ 37.3 µM) | 8 (≈ 9.32 µM) | 16 (≈ 18.6 µM) | 8 (≈ 9.32 µM) | 4 (≈ 4.66 µM) | > 32 | > 32 | > 32 | 1 (≈ 1.17 µM) | > 32 | > 32 | > 32 | > 32 | > 32 | – |
| CC[C@H]1OC(=O)[C@H](C)C(=O)[C@H](C)[C@@H](O[C@@H]2OC(C)CC(N(C)C)C2O)[C@](C)(OC)C[C@@H](C)CN[C@H](CCN(C)C)[C@H]2N(CCCCn3cc(-c4cccc(N)c4)nn3)C(=O)O[C@]12C (stereo partly drawn) [FSM-11052] | – | – | – | – | 2 (≈ 2.26 µM) | > 32 | > 32 | 8 (≈ 9.04 µM) | 32 (≈ 36.2 µM) | 16 (≈ 18.1 µM) | 0.5 (≈ 0.565 µM) | 0.5 (≈ 0.565 µM) | > 32 | > 32 | 0.125 (≈ 0.141 µM) | 8 (≈ 9.04 µM) | > 32 | > 32 | 4 (≈ 4.52 µM) | 32 (≈ 36.2 µM) | – |
